Experimental data taken from ChEMBL document CHEMBL4049444, “Topical Intestinal Aminoimidazole Agonists of G-Protein-Coupled Bile Acid Receptor 1 Promote Glucagon Like Peptide-1 Secretion and Improve Glucose Tolerance” (J Med Chem, 2017).
In brackets after ≈: the same amount, converted by molar mass.

How the values were obtained:
[1] = 1-octanol/phosphate buffer solution partition coefficient, log D of the compound at pH 7.4 for 2 hrs by LC-MS/MS method; type: physicochemical
[2] = Half life in CD-1 mouse liver microsomes at 1 uM in presence of NADPH by LC-MS/MS analysis; type: ADME, microsome
[3] = Apparent permeability from apical to basolateral side in human Caco2 cells at 10 uM after 1 hr by LC-MS/MS analysis; type: ADME, cell-based; settings: Caco-2
[4] = Apparent permeability from basolateral to apical side in human Caco2 cells at 10 uM after 1 hr by LC-MS/MS analysis; type: ADME, cell-based; settings: Caco-2
[5] = Apparent permeability from apical to basolateral side in human Caco2 cells assessed as drug recovery at 10 uM after 1 hr by LC-MS/MS analysis; type: ADME, cell-based; settings: Caco-2, read-out: Drug recovery
[6] = Apparent permeability from basolateral to apical side in human Caco2 cells assessed as drug recovery at 10 uM after 1 hr by LC-MS/MS analysis; type: ADME, cell-based; settings: Caco-2, read-out: Drug recovery
[7] = Cmax in C57BL6/J mouse plasma at 20 mg/kg, po by LC-MS/MS analysis; type: ADME, organism-based; parameters: dose 20 mg/kg, route oral
[8] = Cmax in C57BL6/J mouse liver at 20 mg/kg, po by LC-MS/MS analysis; type: ADME, organism-based; parameters: dose 20 mg/kg, route oral
[9] = Cmax in C57BL6/J mouse gallbladder at 20 mg/kg, po by LC-MS/MS analysis; type: ADME, organism-based, Gall bladder; parameters: dose 20 mg/kg, route oral
[10] = Tmax in C57BL6/J mouse at 20 mg/kg, po by LC-MS/MS analysis; type: ADME, organism-based; settings: in vivo
[11] = Half life in C57BL6/J mouse at 20 mg/kg, po by LC-MS/MS analysis; type: ADME, organism-based; settings: in vivo
[12] = AUC in C57BL6/J mouse at 20 mg/kg, po by LC-MS/MS analysis; type: ADME, organism-based; settings: in vivo
[13] = test system: Ileum; test: Drug uptake in C57BL6 mouse ileum at 20 mg/kg, po after 8 hrs by LC-MS/MS; type: ADME, organism-based; settings: in vivo
[14] = test system: Colon; test: Drug uptake in C57BL6 mouse colon at 20 mg/kg, po after 8 hrs by LC-MS/MS; type: ADME, organism-based; settings: in vivo
[15] = in vivo; settings: C57BL6/J, mouse, faeces, po, 20 mg/kg
[16] = physchem; settings: PBS/MeOH
[17] = Apparent permeability from apical to basolateral side in human Caco2 cells at 5 uM after 1 hr by LC-MS/MS analysis; type: ADME, cell-based; settings: Caco-2
[18] = Apparent permeability from basolateral to apical side in human Caco2 cells at 5 uM after 1 hr by LC-MS/MS analysis; type: ADME, cell-based; settings: Caco-2
[19] = Apparent permeability from apical to basolateral side in human Caco2 cells assessed as drug recovery at 5 uM after 1 hr by LC-MS/MS analysis; type: ADME, cell-based; settings: Caco-2, read-out: Drug recovery
[20] = Apparent permeability from basolateral to apical side in human Caco2 cells assessed as drug recovery at 5 uM after 1 hr by LC-MS/MS analysis; type: ADME, cell-based; settings: Caco-2, read-out: Drug recovery

SMILES	logD at 2 h [1]	half-life at 1 µM [2]	Papp A→B at 1 h, 10 µM [3]	Papp B→A at 1 h, 10 µM [4]	recovery at 1 h, 10 µM [5]	recovery at 1 h, 10 µM [6]	Cmax [7]	Cmax [8]	Cmax [9]	Tmax [10]	half-life [11]	AUC [12]	Drug uptake [13]	Drug uptake [14]	dose excreted at 24 h [15]	solubility at 24 h [16]	Papp A→B at 1 h, 5 µM [17]	Papp B→A at 1 h, 5 µM [18]	recovery at 1 h, 5 µM [19]	recovery at 1 h, 5 µM [20]
COc1ccc(N(C)c2cnc(SCc3c(F)cc(C#CC[N+](C)(C)C)cc3F)n2-c2ccc(F)cc2)cc1OC.[I-]	–	–	0.08 ×10⁻⁶ cm/s	0.24 ×10⁻⁶ cm/s	–	–	–	–	–	–	–	–	–	–	–	–	–	–	–	–
COc1ccc(N(C)c2cnc(SCc3c(F)cc(C#CC[N+](C)(C)C)cc3F)n2-c2ccc(F)cc2)cc1OC.O=C[O-]	1	–	–	–	69.8%	93.4%	100 nM	–	9030 nM	15 min	97 min	48.5 ng·h/mL	–	–	88%	–	–	–	–	–

The remaining lines, values ahead:

logD at 2 h [1]	half-life at 1 µM [2]	Papp A→B at 1 h, 10 µM [3]	Papp B→A at 1 h, 10 µM [4]	recovery at 1 h, 10 µM [5]	recovery at 1 h, 10 µM [6]	Cmax [7]	Cmax [8]	Cmax [9]	Tmax [10]	half-life [11]	AUC [12]	Drug uptake [13]	Drug uptake [14]	dose excreted at 24 h [15]	solubility at 24 h [16]	Papp A→B at 1 h, 5 µM [17]	Papp B→A at 1 h, 5 µM [18]	recovery at 1 h, 5 µM [19]	recovery at 1 h, 5 µM [20]	SMILES
0.8	1.2 min	0.031 ×10⁻⁶ cm/s	19 ×10⁻⁶ cm/s	80.1%	102%	102 nM	385 nM	11000 nM	45 min	317 min	96.2 ng·h/mL	Active	Active	100%	> 200 µM	–	–	–	–	COc1ccc(N(C)c2cnc(SCc3c(F)cc(OCCCS(=O)(=O)O)cc3F)n2-c2ccc(F)cc2)cc1OC.N
0.9	–	0.016 ×10⁻⁶ cm/s	0.22 ×10⁻⁶ cm/s	69.3%	99.6%	–	–	–	–	–	–	–	–	–	–	–	–	–	–	COc1ccc(N(C)c2cnc(SCc3c(F)cc(OCCC[N+]45CCN(CC4)CC5)cc3F)n2-c2ccc(F)cc2)cc1OC.O=C[O-]
3.5	0.7 min	–	–	–	–	–	–	–	–	–	–	–	–	–	6.3 µM (≈ 3.06 µg/mL)	5.32 ×10⁻⁶ cm/s	5.47 ×10⁻⁶ cm/s	84.4%	106%	COc1ccc(N(C)c2cnc(SCc3c(F)cccc3F)n2-c2ccc(F)cc2)cc1OC
